The source of these data is patent US20260166016A1, “GPR139 RECEPTOR AGONIST, PREPARATION METHOD THEREFOR, AND APPLICATION THEREOF” (NEUBO APPTECH CO., LTD., priority 2022, published 2026).

The subject of the assay is LPS induced mouse depression model. As to the kind of experiment: LPS induced mouse depression model, Open Field Test. The format is in vivo. Particulars: gavage 2.5 mg/mL at 0.1 mL/10 g twice daily Day 1-4, test 6 hours after injection, FIGS. 6 and 7. From the text:
Mice: Male Crl: CD1 (ICR) mice; 10-14 weeks old; Weight: 35-40 g; Quantity: 40 pieces
Group 1, placebo+saline group: 10 mice; divided into 2 cages, 5 mice per cage.
Group 2, placebo+lipopolysaccharide (LPS) group: 10 mice; divided into 2 cages, 5 mice per cage.
Group 3, compound NRB181+saline group: 10 mice; divided into 2 cages, 5 mice per cage.
Group 4, compound NRB181+lipopolysaccharide (LPS) group: 10 mice; divided into 2 cages, 5 mice per cage.
21.3.1 Preparation of placebo before experiment: 0.5% CMC sodium+1% Tween80+saline. In a clean bench, 4 tubes of 40 mL placebo were prepared using pyrogen-free centrifuge tubes and ultrapure water, totaling 160 mL, ensuring the absence of endotoxins (LPS). Sterile and endotoxin free centrifuge tubes were used to divide […] of placebo into 4 mL/tube, for a total of 30 tubes, and stored at 4° C. for future use.
LPS with a purity of >98% was required 3.2 mg of LPS was accurately weighed and dissolved in 40 mL of placebo to prepare a sterile solution of 0.08 mg/mL. […]
21.3.13 On the afternoon of the Day 4 of the experiment, 6 hours after mice in Group 1 were injected with saline, an Open Field Test was conducted on each group starting from Group 1. Relevant parameters were recorded, and then the mice in each group were returned to their respective home cages.

Each structure is given as a SMILES string.

Regarding `C[C@H](NC(=O)CNC(=O)c1cc(Cl)ccn1)c1c(F)cccc1F` [NRB181], the “activity of mice in the Open Field Test (number of line crossings, total distance traveled)” value is “significantly increased the activity”.
